Tests used:
Assay in all cases: Kinase selectivity, DiscoverX scanMAX Kinase assay panel (% control)
Assay type in all cases: binding
[1] = molecular target: T1, kinases of the scanMAX Kinase assay panel (Homo sapiens, UniProt P49674); conditions: CSNK1E; 1 uM
T1 construct: purchased DiscoverX Co. (contract measurement) scanMAX Kinase assay panel
How it was run: (§1)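 Percent of control computed as (compound − positive control)/(negative control − positive control) × 100, DMSO defining 100% and positive control 0%. Each panel kinase exposed to 1 uM compound; values under 35% taken to mean the compound acts on that kinase.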

[2] = molecular target: T2, kinases of the scanMAX Kinase assay panel (Homo sapiens, UniProt Q8WTQ7); conditions: GRK7; 1 uM
T2 construct: purchased DiscoverX Co. (contract measurement) scanMAX Kinase assay panel
T2 sequence (Q8WTQ7 1-553): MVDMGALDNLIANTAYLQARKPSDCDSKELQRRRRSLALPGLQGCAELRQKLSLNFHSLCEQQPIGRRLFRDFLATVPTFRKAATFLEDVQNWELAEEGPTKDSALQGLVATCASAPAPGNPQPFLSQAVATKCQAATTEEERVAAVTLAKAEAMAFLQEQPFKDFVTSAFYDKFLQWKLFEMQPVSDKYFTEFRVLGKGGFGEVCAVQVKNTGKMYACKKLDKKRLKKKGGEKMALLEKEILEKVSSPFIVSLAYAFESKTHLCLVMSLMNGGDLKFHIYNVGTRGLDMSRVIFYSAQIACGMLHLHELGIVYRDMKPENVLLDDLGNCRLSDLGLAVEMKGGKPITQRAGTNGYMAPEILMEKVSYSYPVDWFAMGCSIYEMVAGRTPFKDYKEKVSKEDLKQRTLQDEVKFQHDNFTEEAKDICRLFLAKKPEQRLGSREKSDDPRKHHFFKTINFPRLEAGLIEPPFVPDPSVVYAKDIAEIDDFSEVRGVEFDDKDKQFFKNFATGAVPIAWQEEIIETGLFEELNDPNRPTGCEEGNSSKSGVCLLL
How it was run: as §1

[3] = molecular target: T3, kinases of the scanMAX Kinase assay panel (Homo sapiens, UniProt Q02763); conditions: kinase TIE2; 1 uM in DMSO
T3 construct: purchased DiscoverX Co. (contract measurement) scanMAX Kinase assay panel
T3 sequence (Q02763 23-1124): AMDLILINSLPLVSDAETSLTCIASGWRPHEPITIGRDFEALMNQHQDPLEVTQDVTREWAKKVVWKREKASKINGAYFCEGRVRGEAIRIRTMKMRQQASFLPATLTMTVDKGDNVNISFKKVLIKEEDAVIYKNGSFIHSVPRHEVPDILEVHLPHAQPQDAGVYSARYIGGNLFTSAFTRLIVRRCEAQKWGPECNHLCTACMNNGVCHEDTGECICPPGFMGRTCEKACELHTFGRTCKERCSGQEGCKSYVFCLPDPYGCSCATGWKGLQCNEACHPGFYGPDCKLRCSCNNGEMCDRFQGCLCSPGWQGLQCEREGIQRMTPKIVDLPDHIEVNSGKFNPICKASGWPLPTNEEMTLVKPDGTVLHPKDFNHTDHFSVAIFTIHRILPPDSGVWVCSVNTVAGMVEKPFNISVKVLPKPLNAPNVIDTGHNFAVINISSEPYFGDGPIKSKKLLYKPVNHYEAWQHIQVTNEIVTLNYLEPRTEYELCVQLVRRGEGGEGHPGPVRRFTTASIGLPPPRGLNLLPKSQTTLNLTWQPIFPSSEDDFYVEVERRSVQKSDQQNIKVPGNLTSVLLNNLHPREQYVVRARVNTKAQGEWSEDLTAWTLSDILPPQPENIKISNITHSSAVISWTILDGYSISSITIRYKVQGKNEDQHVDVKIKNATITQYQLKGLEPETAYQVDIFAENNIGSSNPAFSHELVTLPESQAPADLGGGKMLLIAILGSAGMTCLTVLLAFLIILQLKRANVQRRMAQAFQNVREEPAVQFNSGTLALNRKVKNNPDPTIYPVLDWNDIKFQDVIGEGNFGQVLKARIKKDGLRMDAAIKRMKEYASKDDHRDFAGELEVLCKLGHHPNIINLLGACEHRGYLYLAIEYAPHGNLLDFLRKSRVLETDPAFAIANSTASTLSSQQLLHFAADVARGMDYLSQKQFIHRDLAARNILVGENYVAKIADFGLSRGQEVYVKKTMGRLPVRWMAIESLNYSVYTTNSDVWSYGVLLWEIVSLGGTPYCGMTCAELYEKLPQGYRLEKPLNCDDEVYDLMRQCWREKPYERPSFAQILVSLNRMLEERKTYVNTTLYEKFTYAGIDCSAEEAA
How it was run: as §1

[4] = molecular target: T4, kinases of the scanMAX Kinase assay panel (Homo sapiens, UniProt Q9UKE5); conditions: kinase TNIK; 1 uM in DMSO
T4 construct: purchased DiscoverX Co. (contract measurement) scanMAX Kinase assay panel
How it was run: as §1

[5] = molecular target: T5, kinases of the scanMAX Kinase assay panel (Homo sapiens, UniProt O14578); conditions: CIT; 1 uM
T5 construct: purchased DiscoverX Co. (contract measurement) scanMAX Kinase assay panel
T5 sequence (O14578 whole entry): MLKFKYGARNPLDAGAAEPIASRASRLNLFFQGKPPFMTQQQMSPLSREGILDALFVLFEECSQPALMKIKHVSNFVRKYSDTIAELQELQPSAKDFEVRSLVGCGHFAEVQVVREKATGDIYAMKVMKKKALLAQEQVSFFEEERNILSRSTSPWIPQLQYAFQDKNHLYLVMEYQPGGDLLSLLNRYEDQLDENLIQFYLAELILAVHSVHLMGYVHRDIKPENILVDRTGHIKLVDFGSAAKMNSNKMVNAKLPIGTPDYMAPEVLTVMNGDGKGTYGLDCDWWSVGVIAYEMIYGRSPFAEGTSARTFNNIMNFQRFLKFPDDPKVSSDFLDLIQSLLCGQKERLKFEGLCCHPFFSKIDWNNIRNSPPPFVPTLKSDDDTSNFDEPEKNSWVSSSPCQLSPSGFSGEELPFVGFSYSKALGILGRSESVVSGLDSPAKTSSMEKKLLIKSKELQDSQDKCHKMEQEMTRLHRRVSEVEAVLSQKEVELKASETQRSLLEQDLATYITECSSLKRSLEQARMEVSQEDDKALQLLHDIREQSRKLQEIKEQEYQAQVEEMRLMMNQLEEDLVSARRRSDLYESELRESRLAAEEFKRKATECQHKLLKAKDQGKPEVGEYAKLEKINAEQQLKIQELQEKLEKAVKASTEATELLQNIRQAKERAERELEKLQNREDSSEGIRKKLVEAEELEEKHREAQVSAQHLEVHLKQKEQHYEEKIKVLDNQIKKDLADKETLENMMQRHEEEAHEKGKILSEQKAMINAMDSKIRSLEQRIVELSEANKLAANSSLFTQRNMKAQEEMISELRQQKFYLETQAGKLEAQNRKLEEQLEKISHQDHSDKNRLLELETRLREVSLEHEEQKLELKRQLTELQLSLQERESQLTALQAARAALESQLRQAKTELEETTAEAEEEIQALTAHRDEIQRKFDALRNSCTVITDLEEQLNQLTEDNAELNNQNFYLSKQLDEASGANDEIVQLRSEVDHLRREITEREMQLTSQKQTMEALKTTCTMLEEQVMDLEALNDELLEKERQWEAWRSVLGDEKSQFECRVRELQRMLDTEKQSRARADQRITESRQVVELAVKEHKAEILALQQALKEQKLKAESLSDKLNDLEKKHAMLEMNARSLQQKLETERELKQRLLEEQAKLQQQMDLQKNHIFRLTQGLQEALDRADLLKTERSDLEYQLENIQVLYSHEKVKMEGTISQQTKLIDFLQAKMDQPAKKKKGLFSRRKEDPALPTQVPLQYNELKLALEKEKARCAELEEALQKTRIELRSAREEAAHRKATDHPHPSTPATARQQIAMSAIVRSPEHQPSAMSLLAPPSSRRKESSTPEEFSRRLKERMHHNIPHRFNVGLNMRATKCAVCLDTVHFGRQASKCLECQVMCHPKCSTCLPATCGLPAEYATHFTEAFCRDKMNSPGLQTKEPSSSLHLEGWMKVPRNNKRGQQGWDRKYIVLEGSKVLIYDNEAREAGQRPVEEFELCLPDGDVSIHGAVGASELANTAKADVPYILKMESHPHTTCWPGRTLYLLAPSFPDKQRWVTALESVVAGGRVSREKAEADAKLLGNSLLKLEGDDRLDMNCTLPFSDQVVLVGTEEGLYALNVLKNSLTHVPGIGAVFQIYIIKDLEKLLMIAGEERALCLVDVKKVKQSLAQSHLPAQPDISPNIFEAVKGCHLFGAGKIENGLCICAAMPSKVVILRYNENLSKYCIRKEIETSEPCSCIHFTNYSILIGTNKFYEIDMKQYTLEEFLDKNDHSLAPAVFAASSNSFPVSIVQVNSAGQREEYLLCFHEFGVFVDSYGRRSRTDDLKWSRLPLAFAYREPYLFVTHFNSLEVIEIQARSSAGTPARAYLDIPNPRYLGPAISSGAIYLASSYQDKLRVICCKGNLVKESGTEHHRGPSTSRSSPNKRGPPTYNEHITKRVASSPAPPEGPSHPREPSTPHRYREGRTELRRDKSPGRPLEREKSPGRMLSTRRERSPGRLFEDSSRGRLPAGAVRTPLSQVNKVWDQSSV
How it was run: as §1

[6] = molecular target: T6, kinases of the scanMAX Kinase assay panel (Plasmodium falciparum, UniProt P62344); conditions: PFCDPK1(P. falciparum); 1 uM
T6 construct: purchased DiscoverX Co. (contract measurement) scanMAX Kinase assay panel
T6 sequence (P62344 whole entry): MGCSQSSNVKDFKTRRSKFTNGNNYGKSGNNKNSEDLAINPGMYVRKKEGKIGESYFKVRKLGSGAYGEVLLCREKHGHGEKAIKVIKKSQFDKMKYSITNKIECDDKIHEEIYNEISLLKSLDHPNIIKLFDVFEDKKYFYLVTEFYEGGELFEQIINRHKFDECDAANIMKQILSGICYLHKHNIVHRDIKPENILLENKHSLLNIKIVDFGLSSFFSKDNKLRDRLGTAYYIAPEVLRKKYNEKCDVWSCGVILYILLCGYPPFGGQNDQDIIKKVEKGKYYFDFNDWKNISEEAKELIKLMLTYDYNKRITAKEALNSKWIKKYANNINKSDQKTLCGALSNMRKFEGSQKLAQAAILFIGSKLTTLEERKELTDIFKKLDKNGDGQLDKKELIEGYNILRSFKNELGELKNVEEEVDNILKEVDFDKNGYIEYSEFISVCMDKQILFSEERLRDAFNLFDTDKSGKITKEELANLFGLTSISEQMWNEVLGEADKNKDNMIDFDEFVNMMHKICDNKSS
How it was run: as §1

[7] = molecular target: T7, kinases of the scanMAX Kinase assay panel (Homo sapiens, UniProt P31751); conditions: AKT2; 1 uM
T7 construct: purchased DiscoverX Co. (contract measurement) scanMAX Kinase assay panel
T7 sequence (P31751 whole entry): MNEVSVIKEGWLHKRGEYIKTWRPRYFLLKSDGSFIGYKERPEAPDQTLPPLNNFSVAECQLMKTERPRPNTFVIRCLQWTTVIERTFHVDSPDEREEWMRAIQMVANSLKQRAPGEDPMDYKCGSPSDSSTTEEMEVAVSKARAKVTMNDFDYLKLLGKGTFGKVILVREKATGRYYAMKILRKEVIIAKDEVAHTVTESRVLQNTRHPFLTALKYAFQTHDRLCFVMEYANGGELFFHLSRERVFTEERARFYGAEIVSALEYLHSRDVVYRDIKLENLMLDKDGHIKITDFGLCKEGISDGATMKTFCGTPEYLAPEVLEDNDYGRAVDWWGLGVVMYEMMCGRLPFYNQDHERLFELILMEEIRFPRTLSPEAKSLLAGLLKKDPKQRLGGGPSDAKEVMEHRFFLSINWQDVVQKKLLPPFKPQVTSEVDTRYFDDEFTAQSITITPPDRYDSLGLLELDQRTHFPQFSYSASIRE
How it was run: as §1

[8] = molecular target: T8, kinases of the scanMAX Kinase assay panel (Homo sapiens, UniProt Q9BYP7); conditions: kinase WNK3; 1 uM in DMSO
T8 construct: purchased DiscoverX Co. (contract measurement) scanMAX Kinase assay panel
How it was run: as §1

[9] = molecular target: T9, kinases of the scanMAX Kinase assay panel (Homo sapiens, UniProt P57058); conditions: HUNK; 1 uM
T9 construct: purchased DiscoverX Co. (contract measurement) scanMAX Kinase assay panel
T9 sequence (P57058 1-714): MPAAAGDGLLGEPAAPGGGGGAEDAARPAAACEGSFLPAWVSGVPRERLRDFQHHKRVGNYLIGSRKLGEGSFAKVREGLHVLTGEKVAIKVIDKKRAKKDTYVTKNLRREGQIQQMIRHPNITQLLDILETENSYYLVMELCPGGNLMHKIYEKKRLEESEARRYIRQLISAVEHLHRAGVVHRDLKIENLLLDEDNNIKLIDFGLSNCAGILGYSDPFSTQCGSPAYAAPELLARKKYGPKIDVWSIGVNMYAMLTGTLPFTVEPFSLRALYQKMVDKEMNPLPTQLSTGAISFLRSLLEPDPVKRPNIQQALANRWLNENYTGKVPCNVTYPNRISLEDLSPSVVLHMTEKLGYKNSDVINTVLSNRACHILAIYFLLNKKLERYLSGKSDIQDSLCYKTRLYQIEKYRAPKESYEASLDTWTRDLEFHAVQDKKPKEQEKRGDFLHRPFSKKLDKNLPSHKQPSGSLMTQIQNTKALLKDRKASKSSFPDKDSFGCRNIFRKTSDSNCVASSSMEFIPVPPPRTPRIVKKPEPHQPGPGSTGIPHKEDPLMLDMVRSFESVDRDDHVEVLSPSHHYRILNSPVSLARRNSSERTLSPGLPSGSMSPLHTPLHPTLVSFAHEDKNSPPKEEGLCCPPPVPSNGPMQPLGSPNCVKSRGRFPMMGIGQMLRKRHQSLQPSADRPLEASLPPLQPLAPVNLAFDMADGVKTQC
How it was run: as §1

[10] = molecular target: T10, kinases of the scanMAX Kinase assay panel (Homo sapiens, UniProt Q99640); conditions: PKMYT1; 1 uM
T10 construct: purchased DiscoverX Co. (contract measurement) scanMAX Kinase assay panel
T10 sequence (Q99640 1-499): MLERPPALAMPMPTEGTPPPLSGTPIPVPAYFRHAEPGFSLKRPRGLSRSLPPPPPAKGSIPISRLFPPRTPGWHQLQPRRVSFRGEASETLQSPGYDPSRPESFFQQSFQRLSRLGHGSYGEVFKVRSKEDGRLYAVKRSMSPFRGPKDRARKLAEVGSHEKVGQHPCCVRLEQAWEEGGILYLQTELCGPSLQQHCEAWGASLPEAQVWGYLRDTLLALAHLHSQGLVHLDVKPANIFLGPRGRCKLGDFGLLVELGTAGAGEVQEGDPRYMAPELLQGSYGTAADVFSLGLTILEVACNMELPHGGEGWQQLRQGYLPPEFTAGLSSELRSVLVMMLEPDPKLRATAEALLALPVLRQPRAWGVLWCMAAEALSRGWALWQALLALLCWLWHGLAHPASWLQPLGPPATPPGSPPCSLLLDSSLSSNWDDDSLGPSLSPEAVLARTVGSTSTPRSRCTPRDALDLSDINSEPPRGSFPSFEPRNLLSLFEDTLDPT
How it was run: as §1

T1 sequence (P49674 whole entry): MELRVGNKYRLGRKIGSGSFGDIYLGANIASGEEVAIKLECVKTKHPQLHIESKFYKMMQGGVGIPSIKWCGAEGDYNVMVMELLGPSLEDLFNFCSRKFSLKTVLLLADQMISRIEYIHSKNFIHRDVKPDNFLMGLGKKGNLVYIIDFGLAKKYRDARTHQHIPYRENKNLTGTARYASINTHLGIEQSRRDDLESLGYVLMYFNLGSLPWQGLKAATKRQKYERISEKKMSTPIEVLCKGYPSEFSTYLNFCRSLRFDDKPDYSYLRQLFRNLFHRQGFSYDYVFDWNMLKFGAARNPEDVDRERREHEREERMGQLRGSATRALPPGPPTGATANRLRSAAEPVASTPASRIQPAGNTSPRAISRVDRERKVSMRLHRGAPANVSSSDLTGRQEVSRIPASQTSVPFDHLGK

| Compound | remaining binding at 1 µM [1] [%] | remaining binding at 1 µM [2] [%] | remaining binding at 1 µM [3] [%] | remaining binding at 1 µM [4] [%] | remaining binding at 1 µM [5] [%] | remaining binding at 1 µM [6] [%] | remaining binding at 1 µM [7] [%] | remaining binding at 1 µM [8] [%] | remaining binding at 1 µM [9] [%] | remaining binding at 1 µM [10] [%] |
| --- | --- | --- | --- | --- | --- | --- | --- | --- | --- | --- |
| CCNc1nc(Nc2ccc(C(=O)N3CCC(N4CCOCC4)CC3)cc2OC)nc2[nH]cc(C(F)(F)F)c12 [Example 104, (4-((4-(ethylamino)-5-(trifluoromethyl)-7H-pyrrolo[2,3-d]pyrimidine-2-yl)amino)-3-methoxyphenyl)(4-morpholinopiperidine-1-yl)methanone] | 4.2 | 78 | 100 | 83 | 100 | 100 | 94 | 100 | 0.7 | 100 |
| CC1(Nc2nc(Nc3cnn([C@H]4CCN(C5COC5)C[C@@H]4F)c3Cl)nc3[nH]cc(C#N)c23)CC1 [Example 52, 2-((5-chloro-1-((3S,4S)-3-fluoro-1-(oxetane-3-yl)piperidine-4-yl)-1H-pyrazole-4-yl)amino)((1-methylcyclopropyl)amino)-7H-pyrrolo[2,3-d]pyrimidine-5-carbonitrile] | 0.15 | 65 | 46 | 3.5 | 76 | 52 | 100 | 55 | 51 | 89 |
| CNc1nc(Nc2ccc(C(=O)N3CCOCC3)cc2OC)nc2[nH]cc(C#N)c12 [Example 1, 2-((2-methoxy-4-(morpholine-4-carbonyl)phenyl)amino)-4-(methylamino)-7H-pyrrolo[2,3-d]pyrimidine-5-carbonitrile] | 12 | 71 | 92 | 95 | 86 | 87 | 86 | 68 | 5.3 | 99 |
